{
  "source": "EPA's ToxValDB 9.5 (doi:10.2903/j.efsa.2011.2417)",
  "key": {"[1]": {"tested_on": "Canidae", "details": "oral, Dog Other, hematological"}, "[2]": {"tested_on": "Anas platyrhynchos", "details": "short-term; oral; feed; mortality"}, "[3]": {"tested_on": "Daphnia magna", "details": "chronic/long-term; duration: 21 days; reproduction"}, "[4]": {"tested_on": "Apis mellifera", "details": "acute; duration: 48 hours; oral; unspecified; mortality"}, "[5]": {"tested_on": "Tagia sp.", "details": "acute; mortality"}, "[6]": {"tested_on": "Oncorhynchus mykiss"}, "[7]": {"tested_on": "Typhlodromus pyri", "details": "not reported; mortality"}, "[8]": {"tested_on": "Rattus norvegicus", "details": "chronic; duration: 2 years; organ weight"}, "[9]": {"tested_on": "Colinus virginianus", "details": "mortality"}},
  "data": [
    {"compound": "CCSC(C)CC1CC(=O)C(C(CC)=NOC/C=C/Cl)=C(O)C1", "note": "(configuration not stated) [Clethodim]", "values": [
      {"measurement": "NOAEL", "setting": "[1]; chronic, duration: 1 years", "result": 21, "unit": "mg/kg-day"},
      {"measurement": "NOAEL", "setting": "[1]; subchronic, duration: 90 days", "result": 21, "unit": "mg/kg-day"},
      {"measurement": "LC50", "setting": "[2]", "result": "> 851", "unit": "mg/kg-day"},
      {"measurement": "NOEC", "setting": "[3]", "result": 49, "unit": "mg/L"},
      {"measurement": "LD50", "setting": "[4]", "result": "> 43", "unit": "µg/piece"},
      {"measurement": "LC50", "setting": "[5]", "result": 129, "unit": "mg/kg"},
      {"measurement": "LC50", "setting": "[6]; acute, duration: 96 hours, mortality", "result": 25, "unit": "µg/mL"},
      {"measurement": "NOEC", "setting": "[6]; chronic/long-term, duration: 21 days", "result": 3.9, "unit": "mg/L"},
      {"measurement": "LEL", "setting": "[7]", "result": 9.6, "unit": "g/ha"},
      {"measurement": "NOAEL", "setting": "[8]", "result": 16, "unit": "mg/kg-day"},
      {"measurement": "LD50", "setting": "[9]; acute, oral", "result": "> 1640", "unit": "mg/kg"},
      {"measurement": "NOEL", "setting": "[9]; reproduction developmental", "result": 17, "unit": "mg/kg-day"}
    ]}
  ]
}
